In paper PMC12616682, “Identification of a Highly Cooperative PROTAC Degrader Targeting GTP-Loaded KRAS(On) Alleles” (Journal of the American Chemical Society, 2025):
“Also recorded” adds a separate entry of the source. Like-named read-outs stand apart in the source and are kept apart here.

Experiments:
[1] = biological target: T1, HiBiT-KRAS^G12D in GP5d cells (Homo sapiens, UniProt P01116, G12D); test: HiBiT degradation assay, HiBiT-KRAS^G12D GP5d cells; type: cell-based; conditions: Gp5D (HiBit-G12D)
T1 construct: host or cells: GP5d HiBiT KRAS G12D

[2] = tested on: Cal-62 cells; test: Whole cell proteomics MS analysis of Cal-62 cells; type: cell-based, human; conditions: 1 µM, 6 h, FDR<0.05
[3] = biological target: T2, KRAS^Q61L in SW948 cells (Homo sapiens, UniProt P01116, Q61L); test: Endogenous KRAS degradation by Western blot in SW948 cells; type: cell-based
T2 construct: host or cells: SW948

[4] = biological target: T3, KRAS^G12R in KP-2 cells (Homo sapiens, UniProt P01116, G12R); test: Endogenous KRAS degradation by Western blot in KP-2 cells; type: cell-based; conditions: KP-2 (G12R)
T3 construct: host or cells: KP-2

[5] = biological target: T4, HiBiT-KRAS^G12R in Cal-62 cells (Homo sapiens, UniProt P01116, G12R); test: Kinetic degradation (live mode), Cal-62 HiBiT KRAS^G12R cells; type: cell-based; conditions: Cal62-HiBit (G12R)
T4 construct: generated a HiBiT-KRAS^G12R Cal-62 knock-in cell line using the CRISPR Cas9 technology; endogenous in cells; host or cells: Cal-62 HiBiT KRAS G12R (in-house CRISPR knock-in)

[6] = tested on: HiBiT-tagged KRAS mutants in GP5d cells; test: Degradation of retrovirally transduced HiBiT-tagged KRAS mutants in GP5d cells; type: cell-based, human; conditions: 18 h
[7] = tested on: Calu-6 cells; test: CellTiter-Glo anti-proliferation, Calu-6; type: cell-based, human; conditions: Calu-6 (Q61K)
[8] = biological target: T5, KRAS^Q61K in Calu-6 cells (Homo sapiens, UniProt P01116, Q61K); test: Endogenous KRAS degradation by Western blot in Calu-6 cells; type: cell-based; conditions: Calu-6 (Q61K)
T5 construct: host or cells: Calu-6

[9] = biological target: T4, HiBiT-KRAS^G12R in Cal-62 cells; test: HiBiT degradation assay, HiBiT-KRAS^G12R Cal-62 cells; type: cell-based; conditions: Cal-62 (HiBitG12R)
Method: (Gibco) with 10% FBS in a humidiﬁed cell incubator at 37 °C and 5% CO2.
Plasmids pSpCas9 BB-2A-GFP (PX458) containing gRNA, Cas9 and GFP sequences and […] plasmid containing ssDNA donor template were purchased from Genscript. Cal-62 cells were plated at 5x10^5 cells in a 6-well plate and left to adhere overnight. The next day, the transfection plasmids (0.5 µg of each gRNA plasmid and 0.5 µg of donor template) were diluted in Opti-MEM, combined with Lipofectamine solution in Opti-mem according to the manufacturer’s protocol and incubated for 20 min at RT. The mixture was added to the cells and incubated for 24 h. The next day the media was exchanged, and the cells were left to incubate for another 24 h. GFP positive cells were single-cell sorted into 96-well plates using ﬂuorescence-activated cell sorting (FACS) at the Flow Cytometry and Cell Sorting Facility (University of Dundee). Sorted cells were left to grow in conditioned media supplemented with 20% FBS for 3 weeks. Formed colonies were tested for the expression of HiBiT KRAS using the Nano-Glo® HiBiT Lytic system (Promega). The positive clones were additionally tested for insertion of the HiBiT tag by western blotting for KRAS (mouse anti-KRAS, LsBio) and HiBiT (mouse anti-HiBiT, Promega) and the insert was further conﬁrmed by Sanger sequencing. […]
gRNA1: 5’ […] 3’, gRNA2: 5’ […] 3’, gRNA 3: 5’ […]
template DNA: 5’ caatccagctt tatttgacac tcattctctc aactctcatc tgattcttac tgttaatatt tatccaagag aactactgcc atgatgcttt aaaagttttt ctgtagctgt tgcatattga cttctaacac ttagaggtgg gggtccacta ggaaaactgt aacaataaga gtggagatag ctgtcagcaa cttttgtgag ggtgtgctac agggtgtaga gcactgtgaa gtctctacat gagtgaagtc atgatatgat cctttgagag cctttagccg ccgcagaaca gcagtctggc tatttagata gaacaacttg attttaagat aaaagaactg tctatgtagc atttatgcat ttttcttaag cgtcgatgga ggagtttgta aatgaagtac agttcattac gatacacgtc tgcagtcaac tggaattttc atgattgaat tttgtaaggt attttgaaat aatttttcat ataaaggtga gtttgtatta aaaggtactg gtggagtatt tgatagtgta ttaaccttat gtgtgacatg ttctaatata gtcacatttt cattattttt attataaggc ctgctgaaa […]
atg[…]act gaGtaCaaGctCgtAgtagttggag ctCgtggc gta ggc aag agt gcc ttA acAatCcaActaattcagaatcat tttgtggacg aatatgatcc aacaatagag gtaaatcttg ttttaatatg catattactg gtgcaggacc attctttgat acagataaag gtttctctga ccattttcat gagtacttat tacaagataa ttatgctgaa agttaagtta tctgaaatgt accttgggtt tcaagttata tgtaaccatt aatatgggaa ctttactttc cttgggagta tgtcagggtc catgatgttc actctctgtg cattttgatt ggaagtgtat ttcagagttt cgtgagaggg tagaaatttg tatcctatct ggacctaaaa gacaatcttt ttattgtaac ttttattttt atgggtttct tggtattgtg acatcatatg taaaggttag atttaattgt actagtgaaa tataattgtt tgatggttga tttttttaaa cttcatcagc agtattttcc tatcttcttc tcaacattag agaacctaca actaccggat aaattttaca aaatgaatta tttgcctaag gtgtggttta tataaaggta ctattaccaa ctttaccttt gctttgttgt catttttaaa tttactcaag gaaatactag gatttaaaaa aaaattcctt 3’
Degradation via Detection of Split Nanoluciferase (HiBiT)
To assess PROTAC-mediated degradation of HiBiT-tagged KRAS constructs, cells were seeded at […]
further incubated at 37 °C for 4 and 24 h. Following incubation, 20 µL per well of Promega Nano-Glo® HiBiT lytic detection reagent mix (Promega Nano-Glo® HiBiT Lytic Detection System […]
plotted as percent of DMSO control.

[10] = biological target: T6, KRAS^G12D in GP5d cells (Homo sapiens, UniProt P01116, G12D); test: Endogenous KRAS degradation by Western blot in GP5d cells; type: cell-based
T6 construct: comparison of the degradative effect on endogenous KRAS; host or cells: GP5d

[11] = biological target: T7, KRAS^G12R in Cal-62 cells (Homo sapiens, UniProt P01116, G12R); test: Endogenous KRAS degradation by Western blot in Cal-62 cells; type: cell-based; conditions: Cal-62 (G12R)
T7 construct: Potent degradation of endogenous KRAS^G12R was achieved by ACBI4 in the Cal-62 cell line; host or cells: Cal-62

[12] = biological target: HRAS in Cal-62 cells (Homo sapiens, UniProt P01112); test: Western blot of HRAS levels in Cal-62 cells
Chain of HRAS in Cal-62 cells (P01112 whole entry): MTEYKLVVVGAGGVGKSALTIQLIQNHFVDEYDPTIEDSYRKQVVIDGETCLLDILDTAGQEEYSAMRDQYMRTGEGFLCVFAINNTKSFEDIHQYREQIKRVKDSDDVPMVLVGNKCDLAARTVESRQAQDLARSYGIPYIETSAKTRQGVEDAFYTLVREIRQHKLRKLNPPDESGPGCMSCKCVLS

[13] = tested on: A375 cells; test: CellTiter-Glo anti-proliferation, A375 (KRAS independent); type: cell-based, human
[14] = biological target: NRAS in Cal-62 cells (Homo sapiens, UniProt P01111); test: Western blot of NRAS levels in Cal-62 cells
Chain of NRAS in Cal-62 cells (P01111 whole entry): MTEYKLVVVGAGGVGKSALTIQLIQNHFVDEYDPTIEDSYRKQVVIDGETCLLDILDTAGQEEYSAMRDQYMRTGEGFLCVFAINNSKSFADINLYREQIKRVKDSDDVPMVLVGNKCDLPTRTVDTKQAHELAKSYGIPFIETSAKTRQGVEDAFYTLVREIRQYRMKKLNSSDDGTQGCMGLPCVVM

[15] = tested on: Cal-62 cells; test: CellTiter-Glo anti-proliferation, Cal-62; type: cell-based, human; conditions: Homo sapiens, 72 h; Cal-62 (G12R); read-out: CTG 72h Ic50

Dmax ([1]; 4 h, read-out: DMax 4h): 84% | DC50 ([1]; 4 h, read-out: Dc50 4h): 9 nM | Dmax ([1]; 24 h, read-out: DMax 24h): 93% | DC50 ([1]; 24 h, read-out: Dc50 24h): 2 nM | Dmax ([3]; 4 h, read-out: DMax 4h): 58% | DC50 ([3]; 4 h, read-out: Dc50 4h): 300 nM | Dmax ([3]; 18 h, read-out: DMax 18h): 65% | DC50 ([3]; 18 h, read-out: Dc50 18h): 1000 nM | Dmax ([4]; 4 h, read-out: DMax 4h): 91% | DC50 ([4]; 4 h, read-out: Dc50 4h): 316 nM | Dmax ([4]; 18 h, read-out: DMax 18h): 82% | DC50 ([4]; 18 h, read-out: Dc50 18h): 151 nM | 1/K (Tau) [5]: 0.689 µM | Plateau (degradation rate) [5]: 0.2774 min⁻¹ | Plateu/ Tau [5]: 6708 M⁻¹ s⁻¹ | Dmax ([8]; 4 h, read-out: DMax 4h): 34% | DC50 ([8]; 4 h, read-out: Dc50 4h): 274 nM | Dmax ([8]; 18 h, read-out: DMax 18h): 68% | DC50 ([8]; 18 h, read-out: Dc50 18h): 157 nM | Dmax ([9]; 4 h, read-out: DMax 4h): 80% | DC50 ([9]; 4 h, read-out: Dc50 4h): 80 nM | Dmax ([9]; 24 h, read-out: DMax 24h): 87% | DC50 ([9]; 24 h, read-out: Dc50 24h): 205 nM | Dmax ([10]; 4 h, read-out: DMax 4h): 96.5% | DC50 ([10]; 4 h, read-out: Dc50 4h): 7 nM | Dmax ([10]; 18 h, read-out: DMax 18h): 99% | DC50 ([10]; 18 h, read-out: Dc50 18h): 7 nM | Dmax ([11]; 4 h, read-out: DMax 4h): 88% | DC50 ([11]; 4 h, read-out: Dc50 4h): 382 nM | Dmax ([11]; 18 h, read-out: DMax 18h): 93% | DC50 ([11]; 18 h, read-out: Dc50 18h): 162 nM | Dmax ([12]; CAL-62, read-out: HRAS Dmax): 72% | window of HRAS degradation over KRAS degradation ([12]; Cal-62, DC50 637 nM vs 382 nM): ca. 2 fold | DC50 ([12]; read-out: HRAS DC50, Cal-62 cells, 4 h, Western blot): 637 nM | IC50 ([13]; Homo sapiens, A-375, 144 h, A375 (KRAS WT; KRAS independent), read-out: CTG 144h Ic50): > 3000 nM
Compound: CC(C)C(C(=O)N1CC(O)CC1C(=O)NCc1ccc2cnn(C)c2c1)n1nnc2c1CCC(CCCN1CCCN(c3nccc(-c4noc(C5(C)CCCc6sc(N)c(C#N)c65)n4)n3)C(C)C1)C2 (stereo not drawn) [ACBI4]
Log2 Difference CDKN1C ([2]; ACBI4/DMSO): 1.09 | Log2 Difference FOSL1 ([2]; ACBI4/DMSO): -0.93 | Log2 Difference G0S2 ([2]; ACBI4/DMSO): -1.35 | Log2 Difference KRAS ([2]; ACBI4/DMSO): -0.94 | Log2 Difference NRAS ([2]; ACBI4/DMSO): -1.86 | Log2 Difference RHOB ([2]; ACBI4/DMSO): 2.12 | Log2 Difference CDKN1C ([2]; ACBI4/Neg Ctr): 1.24 | Log2 Difference FOSL1 ([2]; ACBI4/Neg Ctr): -0.7 | Log2 Difference G0S2 ([2]; ACBI4/Neg Ctr): -1.11 | Log2 Difference KRAS ([2]; ACBI4/Neg Ctr): -0.79 | Log2 Difference NRAS ([2]; ACBI4/Neg Ctr): -1.48 | Log2 Difference PLAU ([2]; ACBI4/Neg Ctr): -0.73 | Log2 Difference RHOB ([2]; ACBI4/Neg Ctr): 2.07 | Log2 Difference TSPYL4 ([2]; ACBI4/Neg Ctr): 0.96 | degradation of HiBiT-tagged KRAS mutant panel (in words) [6]: induce the degradation of all KRAS alleles | CTG 72h Ic50 [7]: unstable | antiproliferative effect (in words) ([13]; KRAS-independent A375 cell line): No antiproliferation; also recorded: No antiproliferative effect was observed | NRAS degradation [14]: degradation of NRAS only at very high concentrations | IC50 [15]: 174 nM
